Columns and labels:
Cannabinoid receptor 1 = Cannabinoid receptor 1 (Homo sapiens, UniProt P21554); test: cAMP Assay; settings: 37 °C
Protocol: (§1) CHO cells expressing human CB1 or CB2 receptors are seeded 17-24 hours prior to the experiment 50.000 cells per well in a black 96 well plate with flat clear bottom (Corning Costar #3904) in DMEM (Invitrogen No. 31331), 1×HT supplement, with 10% fetal calf serum and incubated at 5% CO2 and 37° C. in a humidified incubator. The growth medium was exchanged with Krebs Ringer Bicarbonate buffer with 1 mM IBMX and incubated at 30° C. for 30 min Compounds were added to a final assay volume of 100 ul and incubated for 30 min at 30° C. Using the cAMP-Nano-TRF detection kit the assay (Roche Diagnostics) was stopped by the addition of 50 ul lysis reagent (Tris, NaCl, 1.5% Triton X100, 2.5% NP40, 10% NaN3) and 50 ul detection solutions (20 uM mAb Alexa700-cAMP 1:1, and 48 uM Ruthenium-2-AHA-cAMP) and shaken for 2 h at room temperature. The time-resolved energy transfer is measured by a TRF reader (Evotec Technologies GmbH), equipped with a ND:YAG laser as excitation source. The plate is measured twice with the excitation at 355 nm and at the emission with a delay of 100 ns and a gate of 100 ns, total exposure time 10 s at 730 (bandwidth 30 nm) or 645 nm (bandwidth 75 nm), respectively. The FRET signal is calculated.

Cannabinoid receptor 2 = Cannabinoid receptor 2 (Homo sapiens, UniProt P34972); test: cAMP Assay; settings: 37 °C
Sequence of Cannabinoid receptor 2 (P34972 whole entry): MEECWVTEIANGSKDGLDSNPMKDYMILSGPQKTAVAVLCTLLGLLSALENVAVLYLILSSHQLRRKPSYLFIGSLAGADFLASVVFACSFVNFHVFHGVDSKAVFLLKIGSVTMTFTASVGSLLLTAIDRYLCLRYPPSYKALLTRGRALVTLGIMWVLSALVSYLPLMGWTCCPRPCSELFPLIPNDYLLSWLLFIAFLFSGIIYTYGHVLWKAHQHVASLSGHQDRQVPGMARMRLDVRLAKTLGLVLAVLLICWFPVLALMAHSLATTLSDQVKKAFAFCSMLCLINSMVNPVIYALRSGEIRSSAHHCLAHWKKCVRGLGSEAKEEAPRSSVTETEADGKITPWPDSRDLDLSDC
Protocol: as §1

Sequence of Cannabinoid receptor 1 (P21554 whole entry): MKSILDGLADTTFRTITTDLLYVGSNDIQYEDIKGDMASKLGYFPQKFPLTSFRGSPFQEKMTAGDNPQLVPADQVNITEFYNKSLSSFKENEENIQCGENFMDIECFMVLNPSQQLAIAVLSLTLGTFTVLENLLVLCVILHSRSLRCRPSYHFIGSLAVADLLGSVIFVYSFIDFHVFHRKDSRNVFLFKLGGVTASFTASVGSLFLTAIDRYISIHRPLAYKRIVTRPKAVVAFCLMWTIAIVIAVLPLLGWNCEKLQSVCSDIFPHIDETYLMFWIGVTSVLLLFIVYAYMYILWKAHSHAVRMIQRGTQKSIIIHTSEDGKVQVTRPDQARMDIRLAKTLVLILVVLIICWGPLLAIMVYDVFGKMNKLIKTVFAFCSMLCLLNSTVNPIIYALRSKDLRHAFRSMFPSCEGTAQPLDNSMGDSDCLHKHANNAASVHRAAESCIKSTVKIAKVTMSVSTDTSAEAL

Structure (SMILES): Cc1cnc(C(C)(C)NC(=O)c2ccc(N3CC(F)(F)C3)c(OCC3CC3)n2)s1 [US9290451, 353]
- EC50 (Cannabinoid receptor 1): > 10000 nM
- EC50 (Cannabinoid receptor 2): 4.9 nM

Structure (SMILES): O=C(c1ccc(C2CC2)c(-c2cccc(Cl)c2)n1)N1CCS(=O)(=O)CC1 [US9290451, 48]
- EC50 (Cannabinoid receptor 1): > 10000 nM
- EC50 (Cannabinoid receptor 2): 477 nM

Structure (SMILES): O=C(c1ccc(C2CCCC2)c(OCC2CC2)n1)N1CCS(=O)(=O)CC1 [US9290451, 39]
- EC50 (Cannabinoid receptor 1): > 10000 nM
- EC50 (Cannabinoid receptor 2): 303 nM

Structure (SMILES): CC(C)(CO)NC(=O)c1ccc(NC2CC2)c(OCC2CC2)n1 [US9290451, 159]
- EC50 (Cannabinoid receptor 1): > 10000 nM
- EC50 (Cannabinoid receptor 2): 780 nM

Source: BindingDB's records for patent US9290451 (Hoffmann-La Roche Inc, 2016)
